Assays:
[1] = molecular target: T1, BbLDH (BB_0087, lactate dehydrogenase) (Borreliella burgdorferi, UniProt O51114); assay: X-ray crystal structure, […] Å; allosteric activation of enzyme activity; format: binding
T1 construct: gene ldh; full-length, 316 residues

[2] = molecular target: T1, BbLDH (BB_0087, lactate dehydrogenase); assay: X-ray crystal structure, […] Å; format: binding

T1 sequence (O51114 whole entry): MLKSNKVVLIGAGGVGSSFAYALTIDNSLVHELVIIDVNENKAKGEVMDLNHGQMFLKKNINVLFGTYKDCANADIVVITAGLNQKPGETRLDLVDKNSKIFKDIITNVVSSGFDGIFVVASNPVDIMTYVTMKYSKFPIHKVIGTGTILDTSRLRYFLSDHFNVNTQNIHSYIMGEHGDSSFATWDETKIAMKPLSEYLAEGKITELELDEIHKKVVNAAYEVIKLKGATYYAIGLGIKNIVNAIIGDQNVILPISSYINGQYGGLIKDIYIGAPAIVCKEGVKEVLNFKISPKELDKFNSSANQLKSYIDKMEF

| SMILES | X-ray crystal structure, 2.1 Å; allosteric activation of enzyme activity [1] | X-ray crystal structure, 2.1 Å [2] |
| --- | --- | --- |
| O=P(O)(O)OC[C@H]1OC(O)(COP(=O)(O)O)[C@@H](O)[C@@H]1O (some centres unmarked) [FBP, fructose 1,6-bisphosphate] | Salt bridge and hydrogen bonding residues that interact with FBP in BbLDH (chain A and C, pink and yellow) |  |
| NC(=O)C1=CN([C@@H]2O[C@H](COP(=O)(O)OP(=O)(O)OC[C@H]3O[C@@H](n4cnc5c(N)ncnc54)[C@H](O)[C@@H]3O)[C@@H](O)[C@H]2O)C=CC1 [NADH] |  | Both structures were determined in the presence of NADH and the pyruvate analog oxamate (OXA) |
